The values that follow are results of earlier work, collected in patent US8513407B2, “Process for the preparation of N-acyl-(epi)K5-amine-O-sulfate-derivatives and products thus obtained” (GLYCORES 2000 S.r.l., priority 2002, dated 2013).

This series deals with HIV. The following applies: compared with K5-O-oversulfate and heparin.

Turning to K5-N,O-oversulfate, the anti-HIV activity result was “more active than K5-O-oversulfate and much more active than heparin”.
